Data reported in patent publication US8987193B2, “Nisin derivatives and the use thereof” (University College Cork—National University of Ireland, Cork, priority 2008, dated 2015).
Ends that are not written are not given here.

Tested on: C. sporogenes CBC5
Assay: Deferred antagonism assay
Assay type: cell-based, Clostridium sporogenes
Set-up: key: + = Enhanced bioactivity relative to control; − = Bioactivity equal to or less than control; NA = no activity evident
Conditions: XX and XXX hinge mutant producers

Row | Substance | bioactivity relative to a nisin A-producing control
1 | NisinA GLA (ITSISLCTPGCKTGALMGCGLATATCHCSIHVSK; cysteine pairing not given here; also: lantibiotic nisin-A; UniProt P13068 24-57, looked up, variant N20G M21L K22A) [nisin A hinge variant GLA (i.e. N20G, M21L, K22A)] | −
2 | NisinA GVK | −
3 | NisinA HLT (ITSISLCTPGCKTGALMGCHLTTATCHCSIHVSK; cysteine pairing not given here; also: lantibiotic nisin-A; UniProt P13068 24-57, looked up, variant N20H M21L K22T) [nisin A hinge variant HLT (i.e. N20H, M21L, K22T)] | −
4 | NisinA PAA | −
5 | NisinA PAK | −
6 | NisinA PAL (ITSISLCTPGCKTGALMGCPALTATCHCSIHVSK; not fully specified (bridges); also: lantibiotic nisin-A: lanthionine rings and dehydrated residues, places not given here; UniProt P13068 24-57, looked up, variant N20P M21A K22L) [nisin A hinge variant PAL (i.e. N20P, M21A, K22L)] | −
7 | NisinA PAT (ITSISLCTPGCKTGALMGCPATTATCHCSIHVSK; not fully specified (bridges); also: lantibiotic nisin-A: lanthionine rings and dehydrated residues, places not given here; UniProt P13068 24-57, looked up, variant N20P M21A K22T) [nisin A hinge variant PAT (i.e. N20P, M21A, K22T)] | −
8 | NisinA PIA | −
9 | NisinA PIM | −
10 | NisinA PLA (ITSISLCTPGCKTGALMGCPLATATCHCSIHVSK; not fully specified (bridges); also: lantibiotic nisin-A: lanthionine rings and dehydrated residues, places not given here; UniProt P13068 24-57, looked up, variant N20P M21L K22A) [nisin A hinge variant PLA (i.e. N20P, M21L, K22A)] | −
11 | NisinA PMC | −
12 | NisinA PML | −
13 | NisinA PMM | −
14 | NisinA PMQ | −
15 | NisinA PMT | −
16 | NisinA PNR (ITSISLCTPGCKTGALMGCPNRTATCHCSIHVSK; not fully specified (bridges); also: lantibiotic nisin-A: lanthionine rings and dehydrated residues, places not given here; UniProt P13068 24-57, looked up, variant N20P M21N K22R) [nisin A hinge variant PNR (i.e. N20P, M21N, K22R)] | −
17 | NisinA PSL | −
18 | NisinA PTA | −
19 | NisinA PTL (ITSISLCTPGCKTGALMGCPTLTATCHCSIHVSK; thioether (positions not given here); not fully specified (residues 2, 5, 33, bridges); also: lantibiotic nisin A, thioether rings and dehydro residues not given here; UniProt P13068 24-57, looked up, variant N20P M21T K22L) [nisin A hinge variant PTL (i.e. N20P, M21T, K22L)] | −
20 | NisinA QLT (ITSISLCTPGCKTGALMGCQLTTATCHCSIHVSK; not fully specified (bridges); also: lantibiotic nisin-A: lanthionine rings and dehydrated residues, places not given here; UniProt P13068 24-57, looked up, variant N20Q M21L K22T) [nisin A hinge variant QLT (i.e. N20Q, M21L, K22T)] | −
21 | NisinA SVA (ITSISLCTPGCKTGALMGCSVATATCHCSIHVSK; not fully specified (bridges); also: lantibiotic nisin-A: lanthionine rings and dehydrated residues, places not given here; UniProt P13068 24-57, looked up, variant N20S M21V K22A) [nisin A hinge variant SVA (i.e. N20S, M21V, K22A)] | −
